In ChEMBL document CHEMBL1909046, “DrugMatrix in vitro pharmacology data” one finds IC50 and Ki data, which are given here for 10 compounds.

pIC50, pKi: −log10 of the molar value.

A word on the pIC50: it is −log10 of the IC50, conventionally taken in molar units. For orientation: pKi means −log10 of the Ki, conventionally taken in molar units.

The target of test [1] is 5-hydroxytryptamine receptor 6 (Homo sapiens, UniProt P50406). Format: cell membranes, HeLa, Membrane. As to conditions: for IC50: hela. As to all read-outs here: in other assays of this panel Not Active means under 50% inhibition at 10 µM.
Chain of 5-hydroxytryptamine receptor 6 (P50406 whole entry): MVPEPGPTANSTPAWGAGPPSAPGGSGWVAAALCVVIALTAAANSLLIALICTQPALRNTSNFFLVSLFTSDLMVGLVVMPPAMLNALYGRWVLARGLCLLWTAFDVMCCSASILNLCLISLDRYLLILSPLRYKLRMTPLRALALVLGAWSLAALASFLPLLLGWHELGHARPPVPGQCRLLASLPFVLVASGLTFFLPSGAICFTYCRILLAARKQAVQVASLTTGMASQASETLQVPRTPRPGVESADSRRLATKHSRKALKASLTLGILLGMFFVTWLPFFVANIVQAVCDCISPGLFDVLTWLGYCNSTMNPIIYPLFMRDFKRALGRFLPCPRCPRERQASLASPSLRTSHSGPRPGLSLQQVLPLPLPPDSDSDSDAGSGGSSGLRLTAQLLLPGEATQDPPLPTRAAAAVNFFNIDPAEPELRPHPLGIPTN
Test [2] has as its target T1, Vasoactive intestinal polypeptide receptor 1 (Homo sapiens, UniProt P32241). Also: in other assays of this panel Not Active means under 50% inhibition at 10 µM.
T1 sequence (P32241 whole entry): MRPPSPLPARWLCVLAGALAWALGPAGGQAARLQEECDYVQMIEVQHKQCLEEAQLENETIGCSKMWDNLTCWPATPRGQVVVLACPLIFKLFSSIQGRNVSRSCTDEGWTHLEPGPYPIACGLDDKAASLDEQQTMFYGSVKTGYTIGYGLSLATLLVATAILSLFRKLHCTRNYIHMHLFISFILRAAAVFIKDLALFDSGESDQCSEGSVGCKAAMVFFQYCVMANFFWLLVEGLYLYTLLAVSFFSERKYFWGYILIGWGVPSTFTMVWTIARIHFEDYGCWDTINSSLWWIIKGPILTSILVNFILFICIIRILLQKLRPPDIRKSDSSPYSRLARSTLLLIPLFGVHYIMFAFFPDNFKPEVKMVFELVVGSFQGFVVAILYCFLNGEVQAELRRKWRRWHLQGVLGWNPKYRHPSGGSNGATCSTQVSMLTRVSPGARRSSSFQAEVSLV
The format is cell membranes, Membrane. As to conditions: ht-29.

In the next test the target is D(1A) dopamine receptor (Homo sapiens, UniProt P21728). Put plainly: DRUGMATRIX: Dopamine D1 radioligand binding (ligand: [3H] SCH-23390). Format: cell membranes, CHO, Membrane. Conditions: Not Active = under 50% inhibition at 10 µM; for IC50: cho.
Chain of D(1A) dopamine receptor (P21728 whole entry): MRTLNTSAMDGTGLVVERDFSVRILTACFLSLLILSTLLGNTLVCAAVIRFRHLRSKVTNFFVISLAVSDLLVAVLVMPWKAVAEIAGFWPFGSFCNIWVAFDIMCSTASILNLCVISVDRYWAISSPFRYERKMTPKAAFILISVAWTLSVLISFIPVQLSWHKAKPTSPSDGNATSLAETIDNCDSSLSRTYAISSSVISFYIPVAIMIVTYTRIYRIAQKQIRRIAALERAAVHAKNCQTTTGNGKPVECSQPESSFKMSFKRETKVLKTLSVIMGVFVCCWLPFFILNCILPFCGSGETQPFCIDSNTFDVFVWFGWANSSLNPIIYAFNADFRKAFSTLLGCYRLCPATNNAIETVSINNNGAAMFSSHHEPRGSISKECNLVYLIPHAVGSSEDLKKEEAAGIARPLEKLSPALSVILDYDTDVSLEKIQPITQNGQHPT
A short description of test [3]: DRUGMATRIX: Imidazoline I2, Central radioligand binding (ligand: [3H] Idazoxan). The format is cell membranes, Rattus norvegicus, Wistar, Cerebral cortex, Membrane. As to conditions: Not Active = under 50% inhibition at 10 µM.
Test [4] concerns the target T2, Neuropeptide Y receptor type 2 (Homo sapiens, UniProt P49146). Also: in other assays of this panel Not Active means under 50% inhibition at 10 µM.
T2 sequence (P49146 whole entry): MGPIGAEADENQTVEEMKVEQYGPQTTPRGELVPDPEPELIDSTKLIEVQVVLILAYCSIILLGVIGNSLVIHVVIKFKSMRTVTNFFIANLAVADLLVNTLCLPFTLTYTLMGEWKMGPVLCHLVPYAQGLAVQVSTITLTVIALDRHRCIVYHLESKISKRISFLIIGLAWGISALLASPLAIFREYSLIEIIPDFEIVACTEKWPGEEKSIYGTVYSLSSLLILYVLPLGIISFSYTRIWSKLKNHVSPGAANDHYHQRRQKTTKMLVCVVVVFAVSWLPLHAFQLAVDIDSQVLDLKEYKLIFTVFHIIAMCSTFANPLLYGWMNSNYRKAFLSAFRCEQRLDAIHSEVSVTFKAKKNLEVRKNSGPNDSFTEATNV
The format is cell membranes, Membrane. As to conditions: kan-ts.

A further test has as its target T3, Adenosine receptor A1 (Homo sapiens, UniProt P30542).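 Also: radioligand binding assay at the adenosine A1 receptor, with DPCPX serving as the labelled ligand; in other assays of this panel Not Active means under 50% inhibition at 10 µM.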
T3 sequence (P30542 whole entry): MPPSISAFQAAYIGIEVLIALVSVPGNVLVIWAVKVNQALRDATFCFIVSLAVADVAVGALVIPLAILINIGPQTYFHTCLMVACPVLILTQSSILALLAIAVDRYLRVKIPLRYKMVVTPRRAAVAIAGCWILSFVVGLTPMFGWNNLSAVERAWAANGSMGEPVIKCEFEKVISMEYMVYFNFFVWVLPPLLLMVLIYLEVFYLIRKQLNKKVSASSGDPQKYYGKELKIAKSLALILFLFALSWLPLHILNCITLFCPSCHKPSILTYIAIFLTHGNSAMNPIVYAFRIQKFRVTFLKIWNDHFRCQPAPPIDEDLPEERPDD
The format is cell membranes, CHO, Membrane. As to conditions: cho.

Take `CC(=O)O[C@]1(C(C)=O)CC[C@H]2[C@@H]3C=C(Cl)C4=CC(=O)[C@@H]5C[C@@H]5[C@]4(C)[C@H]3CC[C@@]21C` [CYPROTERONE ACETATE]: the IC50 entry (in test [1]; in test [2]; at D(1A) dopamine receptor; in test [3]; in test [4]; against Adenosine receptor A1) was “Not Active” each time. Also, the Ki result in test [3] is given as “Not Active”.
Consider `Nc1nc(N)nc(NC2CC2)n1` [CYROMAZINE], for which the IC50 result (in test [1]; in test [2]; at D(1A) dopamine receptor; in test [3]; in test [4]; at Adenosine receptor A1) was “Not Active” throughout. Moreover, the Ki result in test [3] is given as “Not Active”.
Regarding `CCN[C@@H](C)Cc1cccc(C(F)(F)F)c1` [DEXFENFLURAMINE], the IC50 result (in test [1]; in test [2]; on D(1A) dopamine receptor; in test [3]; in test [4]; against Adenosine receptor A1) was “Not Active” in each case. The Ki entry in test [3] is “Not Active”.
In the case of `C[C@H](C(=O)O)c1cccc(C(=O)c2ccccc2)c1` [DEXKETOPROFEN], the IC50 entry (in test [1]; in test [2]; on D(1A) dopamine receptor; in test [3]; in test [4]; against Adenosine receptor A1) was “Not Active” each time. Besides, the Ki entry in test [3] was “Not Active”.
With `CN1C(=O)CN=C(c2ccccc2)c2cc(Cl)ccc21` [DIAZEPAM], the IC50 entry (in test [1]; in test [2]; on D(1A) dopamine receptor; in test [3]; in test [4]; on Adenosine receptor A1) was “Not Active” each time. The Ki entry in test [3] was “Not Active”.
Turning to `CN1C[C@H](C(=O)N[C@]2(C)O[C@@]3(O)[C@@H]4CCCN4C(=O)[C@H](Cc4ccccc4)N3C2=O)C[C@@H]2c3cccc4[nH]cc(c34)C[C@H]21` [DIHYDROERGOTAMINE], the pIC50 in test [1] (read-out: IC50) is 8.49; on D(1A) dopamine receptor (read-out: IC50) it was 5.62; in test [3] (read-out: IC50), 8.60. Moreover, the pKi in test [1] (read-out: Ki) was 8.83; on D(1A) dopamine receptor (read-out: Ki) it was 5.92; in test [3] (read-out: Ki), 8.78. For the same compound, the IC50 entry (in test [2]; in test [4]; on Adenosine receptor A1) was “Not Active” each time.
`Cc1c(N(C)CS(=O)(=O)[O-])c(=O)n(-c2ccccc2)n1C.[Na+]` [DIPYRONE SODIUM]: the IC50 entry (in test [1]; in test [2]; at D(1A) dopamine receptor; in test [3]; in test [4]; against Adenosine receptor A1) was “Not Active” throughout. In addition, in test [3], the Ki result is on record as “Not Active”.
For the compound `CC(CCc1ccc(O)cc1)NCCc1ccc(O)c(O)c1` (configuration not stated) [DOBUTAMINE], the IC50 entry (in test [1]; in test [2]; at D(1A) dopamine receptor; in test [3]; in test [4]; against Adenosine receptor A1) was “Not Active” each time. Further, in test [3], the Ki result is on record as “Not Active”.
Turning to `CCn1cc(C(=O)O)c(=O)c2cc(F)c(N3CCNCC3)nc21` [ENOXACIN], the IC50 result (in test [1]; in test [2]; at D(1A) dopamine receptor; in test [3]; in test [4]; against Adenosine receptor A1) was “Not Active” in each case. The Ki result in test [3] is “Not Active”.
`CCC(=O)O[C@H]1[C@H](O[C@@H]2[C@@H](C)[C@H](O[C@H]3C[C@@](C)(OC)[C@@H](O)[C@H](C)O3)[C@@H](C)C(=O)O[C@H](CC)[C@@](C)(O)[C@H](O)[C@@H](C)C(=O)[C@H](C)C[C@@]2(C)O)O[C@H](C)C[C@@H]1N(C)C` [ERYTHROMYCIN PROPIONATE]: the IC50 entry (in test [1]; in test [2]; on D(1A) dopamine receptor; in test [3]; in test [4]; at Adenosine receptor A1) was “Not Active” each time. Besides, in test [3], the Ki result was “Not Active”.
